In ChEMBL document CHEMBL1152525, “Synthesis and anti-HIV activity of novel 2',3'-dideoxy-3'-thiacytidine prodrugs” (Bioorg Med Chem, 2009):

How the values were obtained:
in vitro = settings: human, PBMC
Description: Cytotoxicity against human PBMC after 7 days by sulforhodamine B assay

physchem = settings: octanol/water
Description: Lipophilicity, log P of the compound

[1] = tested on: Human immunodeficiency virus 1; experiment: microbe, parasite or virus in culture; settings: Human immunodeficiency virus 1, 168 h
Description: Antiviral activity against HIV1 infected in human PBMC assessed as inhibition of viral p24 antigen production after 7 days by ELISA

Structure (SMILES) | logP (physchem) | IC50 [1] [µM] | CC50 at 168 h (in vitro) [µM]
CCCCCCCCOC(=O)OC[C@H]1O[C@@H](n2ccc(N)nc2=O)CS1 | 1.72 | 0.2 | 450
CCCCCCOC(=O)OC[C@H]1O[C@@H](n2ccc(N)nc2=O)CS1 | 1.57 | 0.25 | 857
CC(C)CCOC(=O)OC[C@H]1O[C@@H](n2ccc(N)nc2=O)CS1 | -0.15 | 1.27 | 3330
CCOC(=O)OC[C@H]1O[C@@H](n2ccc(N)nc2=O)CS1 | -0.31 | 0.2 | 3000

Further lines, with some results ahead:

logP (physchem) | IC50 [1] [µM] | Structure (SMILES) | CC50 at 168 h (in vitro) [µM]
0.86 | 0.2 | CCCCOC(=O)OC[C@H]1O[C@@H](n2ccc(N)nc2=O)CS1 | 4500
0.2 | 0.3 | CCCOC(=O)OC[C@H]1O[C@@H](n2ccc(N)nc2=O)CS1 | 3330
1.23 | 0.065 | CCCCCOC(=O)OC[C@H]1O[C@@H](n2ccc(N)nc2=O)CS1 | 1290
